Biological target: T1, human orexin type 2 receptor (Homo sapiens, UniProt O43614)
T1 construct: expressed in transfected cells
T1 sequence (O43614 1-444): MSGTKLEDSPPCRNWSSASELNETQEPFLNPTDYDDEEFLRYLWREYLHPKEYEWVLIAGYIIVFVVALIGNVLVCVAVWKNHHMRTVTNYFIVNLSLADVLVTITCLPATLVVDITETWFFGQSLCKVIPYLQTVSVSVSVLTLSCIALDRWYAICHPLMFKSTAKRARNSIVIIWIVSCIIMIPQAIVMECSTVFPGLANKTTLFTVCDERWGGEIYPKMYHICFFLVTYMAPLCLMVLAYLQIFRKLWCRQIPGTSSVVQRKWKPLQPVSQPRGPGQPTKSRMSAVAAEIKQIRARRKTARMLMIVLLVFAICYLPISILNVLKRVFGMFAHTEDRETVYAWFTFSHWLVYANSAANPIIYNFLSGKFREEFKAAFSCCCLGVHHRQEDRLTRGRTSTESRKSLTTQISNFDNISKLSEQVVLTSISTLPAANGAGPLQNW
Assay: Measurement of orexin type 2 receptor agonist activity (calcium fluorescence, Fluo-4 AM, FDSS)
Format: cell-based
Details: test compound 3 μM; CHO cells expressing human OX2 receptor; DMSO = 0%, orexin A (human) = 100%
How it was run: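 Agonist response scaled between vehicle (0%) and human orexin A at 10 nM final (100%), from 2-min kinetic Fluo-4 fluorescence reads. Stable hOX2R CHO-K1 clone, dye-loaded in HBSS/20 mM HEPES/0.1% BSA with 1.25 mM probenecid before compound addition.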

Row | Structure (SMILES) | OX2R agonist activity (3 μM, %) [%]
1 | CC(C)S(=O)(=O)NC[C@@H]1[C@H](F)CN1C(=O)[C@@H]1C[C@@]1(F)c1ccc(F)cc1-c1c(F)cccc1F [Example 444, N-({(2R,3R)-3-fluoro-1-[(1S,2S)-2-fluoro-2-(2′,5,6′-trifluoro[1,1′-biphenyl]-2-yl)cyclopropane-1-carbonyl]azetidin-2-yl}methyl)propane-2-sulfonamide] | 96
2 | COC[C@@H]1CN(C(=O)[C@@H]2C[C@@]2(F)c2ccccc2-c2c(F)cccc2F)C1CNS(C)(=O)=O (stereo in doubt) [Example 399, N-{[(2R,3R)-1-[(1S,2S)-2-(2′,6′-difluoro[1,1′-biphenyl]-2-yl)-2-fluorocyclopropane-1-carbonyl]-3-(methoxymethyl)azetidin-2-yl]methyl}methanesulfonamide] | 95
3 | CS(=O)(=O)NC1CCN(C(=O)C2CC2c2ccc(F)cc2-c2ccccc2Cl)C1 (racemic) [Example 134, a mixture of rac-N-{(3R)-1-[(1R,2R)-2-(2′-chloro-5-fluoro[1,1′-biphenyl]-2-yl)cyclopropane-1-carbonyl]pyrrolidin-3-yl}methanesulfonamide and rac-N-{(3S)-1-[(1R,2R)-2-(2′-chloro-5-fluoro[1,1′-biphenyl]-2-yl)cyclopropane-1-carbonyl]pyrrolidin-3-yl}methanesulfonamide] | 74
4 | CS(=O)(=O)NC[C@@H]1CCN1C(=O)[C@@H]1C[C@@]1(F)c1ccccc1-c1c(F)cccc1F [Example 352, N-({(2S)-1-[(1S,2S)-2-(2′,6′-difluoro[1,1′-biphenyl]-2-yl)-2-fluorocyclopropane-1-carbonyl]azetidin-2-yl}methyl)methanesulfonamide] | 96
5 | CCNS(=O)(=O)NC[C@@H]1[C@H](F)CN1C(=O)[C@@H]1C[C@@]1(F)c1ccc(F)cc1-c1c(F)cccc1F [Example 427, N-ethyl-N′-({(2R,3R)-3-fluoro-1-[(1S,2S)-2-fluoro-2-(2′,5,6′-trifluoro[1,1′-biphenyl]-2-yl)cyclopropane-1-carbonyl]azetidin-2-yl}methyl)sulfuric diamide] | 96
6 | CC(O)[C@@H]1CN(C(=O)[C@@H]2C[C@@]2(F)c2ccccc2-c2c(F)cccc2F)[C@H]1CNS(C)(=O)=O (mixture of isomers) [Example 404, a mixture of N-{[(2R,3R)-1-[(1S,2S)-2-(2′,6′-difluoro[1,1′-biphenyl]-2-yl)-2-fluorocyclopropane-1-carbonyl]-3-[(1R)-1-hydroxyethyl]azetidin-2-yl]methyl}methanesulfonamide and N-{[(2R,3R)-1-[(1S,2S)-2-(2′,6′-difluoro[1,1′-biphenyl]-2-yl)-2-fluorocyclopropane-1-carbonyl]-3-[(1S)-1-hydroxyethyl]azetidin-2-yl]methyl}methanesulfonamide] | 95
7 | CS(=O)(=O)N[C@H]1CCCN(C(=O)C2CC2(F)c2ccccc2-c2c(F)cccc2F)C1 (single isomer, unassigned) [Example 306, N-{(3S)-1-[(1S,2S)-2-(2′,6′-difluoro [1,1′-biphenyl]-2-yl)-2-fluorocyclopropane-1-carbonyl]piperidin-3-yl}methanesulfonamide, or N-{(3S)-1-[(1R,2R)-2-(2′,6′-difluoro[1,1′-biphenyl]-2-yl)-2-fluorocyclopropane-1-carbonyl]piperidin-3-yl}methanesulfonamide] | 93

Further lines, results first:

Row | OX2R agonist activity (3 μM, %) [%] | Structure (SMILES)
8 | 83 | CS(=O)(=O)NC[C@@H]1CCN1C(=O)[C@@H]1C[C@H]1c1ccccc1-c1c(F)cc(F)cc1F [Example 403, N-({(2S)-1-[(1R,2R)-2-(2′,4′,6′-trifluoro[1,1′-biphenyl]-2-yl)cyclopropane-1-carbonyl]azetidin-2-yl}methyl)methanesulfonamide]
9 | 94 | Cc1ccc(C2CC2C(=O)N2CCC(NS(C)(=O)=O)C2)c(-c2ccccc2Cl)c1 (racemic) [Example 145, a mixture of rac-N-{(3R)-1-[(1R,2R)-2-(2′-chloro-5-methyl[1,1′-biphenyl]-2-yl)cyclopropane-1-carbonyl]pyrrolidin-3-yl}methanesulfonamide and rac-N-{(3S)-1-[(1R,2R)-2-(2′-chloro-5-methyl[1,1-biphenyl]-2-yl)cyclopropane-1-carbonyl]pyrrolidin-3-yl}methanesulfonamide]
10 | 87 | CS(=O)(=O)N[C@@H]1CN(C(=O)[C@@H]2C[C@H]2c2ccccc2-c2c(F)cccc2F)C[C@H]1F [Example 279, N-{(3R,4R)-1-[(1R,2R)-2-(2′,6′-difluoro[1,1′-biphenyl]-2-yl)cyclopropane-1-carbonyl]-4-fluoropyrrolidin-3-yl}methanesulfonamide]
11 | 102 | CS(=O)(=O)NC1CCCN(C(=O)C2CC2c2c(F)cccc2-c2c(F)cccc2F)CC1 (racemic) [Example 32, a mixture of rac-N-{(4R)-1-[(1R,2R)-2-(2′,3,6′-trifluoro[1,1′-biphenyl]-2-yl)cyclopropane-1-carbonyl]azepan-4-yl}methanesulfonamide and rac-N-{(4S)-1-[(1R,2R)-2-(2′,3,6′-trifluoro[1,1′-biphenyl]-2-yl)cyclopropane-1-carbonyl]azepan-4-yl}methanesulfonamide]
12 | 86 | CCC(NS(C)(=O)=O)[C@@H]1CCN1C(=O)[C@@H]1C[C@@]1(F)c1ccccc1-c1c(F)cccc1F (stereo partly drawn) [Example 379, N-[(1R)-1-{(2S)-1-[(1S,2S)-2-(2′,6′-difluoro[1,1′-biphenyl]-2-yl)-2-fluorocyclopropane-1-carbonyl]azetidin-2-yl}propyl]methanesulfonamide, or N-[(1S)-1-{(2S)-1-[(1S,2S)-2-(2′,6′-difluoro[1,1′-biphenyl]-2-yl)-2-fluorocyclopropane-1-carbonyl]azetidin-2-yl}propyl]methanesulfonamide]
13 | 86 | CC1(C(=O)N2CCCC[C@H](NS(C)(=O)=O)C2)CC1c1ccccc1-c1c(F)cccc1F (stereo partly drawn) [Example 274, N-{(3S)-1-[(1R,2S)-2-(2′,6′-difluoro[1,1′-biphenyl]-2-yl)-1-methylcyclopropane-1-carbonyl]azepan-3-yl}methanesulfonamide, or N-{(3S)-1-[(1S,2R)-2-(2′,6′-difluoro[1,1′-biphenyl]-2-yl)-1-methylcyclopropane-1-carbonyl]azepan-3-yl}methanesulfonamide]
14 | 97 | CS(=O)(=O)NC[C@H]1[C@H](CO)CN1C(=O)[C@@H]1C[C@@]1(F)c1ccccc1-c1c(F)cccc1F [Example 391, N-{[(2R,3R)-1-[(1S,2S)-2-(2′,6′-difluoro[1,1′-biphenyl]-2-yl)-2-fluorocyclopropane-1-carbonyl]-3-(hydroxymethyl)azetidin-2-yl]methyl}methanesulfonamide]
15 | 100 | CN(C)S(=O)(=O)NC1CCN(C(=O)C2CC2c2ccccc2-c2c(F)cccc2F)C1 (racemic) [Example 113, a mixture of rac-N′-{(3R)-1-[(1R,2R)-2-(2′,6′-difluoro[1,1′-biphenyl]-2-yl)cyclopropane-1-carbonyl]pyrrolidin-3-yl}-N,N-dimethylsulfuric diamide and rac-N′-{(3S)-1-[(1R,2R)-2-(2′,6-difluoro[1,1′-biphenyl]-2-yl)cyclopropane-1-carbonyl]pyrrolidin-3-yl}-N,N-dimethylsulfuric diamide]
